This is an account of results in patent US11530186B2, “Inhibitors for the β-catenin / T-cell factor protein-protein interaction” (H. LEE MOFFITT CANCER CENTER AND RESEARCH INSTITUTE, INC., priority 2018, dated 2022).

Structures are written as SMILES. Read-outs that look alike come from different tables or passages of the source.

One experiment relates to A549 cells. Nature of the experiment: MTS cell viability assay, A549. Type of experiment: cell-based. To be noted: Homo sapiens, 72 h, mean ± SD (n = 3), Table 4, read-out: MTS cell viability IC50, Wnt normal A549. On the procedure:
(§1) MTS Cell Viability Assay. Colorectal cancer cells (SW480 and HCT116), TNBC cells (MDA-MB-231, MDA-MB-468, and BT-20), and lung cancer A549 cells were seeded in 96-well plates at 5×10^3 cells/well, maintained overnight at 37° C., and incubated with the tested compounds at various concentrations. Cell viability was monitored after 72 h using a freshly prepared mixture of 1 part phenazine methosulfate (PMS, Sigma) solution (0.92 mg/mL) and 19 parts 3-(4,5-dimethylthiazol-2-yl)-5-(3-carboxymethoxyphenyl)-2-(4-sulfophenyl)-2H-tetrazolium (MTS, Promega) solution (2 mg/mL). Cells were incubated in 10 μL of this solution at 37° C. for 3 h, and A490 was measured. The effect of each compound is expressed as the concentration required to reduce A490 by 50% (IC50) relative to DMSO-treated cells. Experiments were performed in triplicate.

Experiment [1] deals with Wnt/β-catenin transactivation. Nature of the experiment: Wnt-responsive TOPFlash luciferase reporter assay, β-catenin-activated HEK cells. Type of experiment: cell-based. The note with it: HEK293, read-out: TOPFlash IC50 ± SD, β-catenin-activated HEK293, 24 h treatment, mean ± SD (n = 3), read-out: TOPFlash IC50 ± SD, β-catenin-activated HEK239. On the procedure: Cell Transfection and Luciferase Assay. FuGENE 6 (E2962, Promega) in the 96-well plate format was used for the transfection of HEK293 cells according to the manufacturer's instructions. HEK293 cells were co-transfected with 45 ng of the TOPFlash or FOPFlash reporter gene, and 135 ng of pcDNA3.1-β-catenin. Cells were cultured in DMEM and 10% fatal bovine serum (FBS) at 37° C. for 24 h, and different concentrations of inhibitors were then added. After 24 h, the luciferase reporter activity was measured using the Dual-Glo system (E2940, Promega). Normalized luciferase activity in response to the treatment with the inhibitors was compared with that obtained from the cells treated with DMSO. Experiments were performed in triplicate.
(In general: In a reporter assay the amount or activity of a reporter protein is the signal.)

The target in experiment [2] is T1, β-catenin/Tcf protein-protein interaction (Homo sapiens, UniProt P35222).
T1 construct: Wild-type β-catenin (residues 138-781) were cloned into a pET-28b vector; 6×histidine (C); made in house; host or cells: E. coli BL21 DE3
T1 sequence (P35222 138-781): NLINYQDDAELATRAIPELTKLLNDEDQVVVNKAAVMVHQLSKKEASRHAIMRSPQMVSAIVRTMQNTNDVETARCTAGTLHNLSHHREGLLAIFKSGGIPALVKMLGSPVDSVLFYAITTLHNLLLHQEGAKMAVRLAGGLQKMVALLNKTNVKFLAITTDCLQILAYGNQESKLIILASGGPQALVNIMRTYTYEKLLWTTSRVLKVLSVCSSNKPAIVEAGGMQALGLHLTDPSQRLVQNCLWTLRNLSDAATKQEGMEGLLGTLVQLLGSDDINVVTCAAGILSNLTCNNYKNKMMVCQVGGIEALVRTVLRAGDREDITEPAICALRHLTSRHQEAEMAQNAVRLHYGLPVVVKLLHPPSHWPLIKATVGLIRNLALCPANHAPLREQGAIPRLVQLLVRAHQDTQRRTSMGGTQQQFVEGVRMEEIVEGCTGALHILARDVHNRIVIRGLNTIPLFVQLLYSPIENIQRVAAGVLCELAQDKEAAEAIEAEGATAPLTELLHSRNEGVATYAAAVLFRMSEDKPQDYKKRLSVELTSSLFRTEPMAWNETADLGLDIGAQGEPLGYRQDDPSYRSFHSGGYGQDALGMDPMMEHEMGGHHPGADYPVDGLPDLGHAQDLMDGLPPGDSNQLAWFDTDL
Kind of experiment: FP competitive inhibition assay. Type of experiment: binding. The method in brief:
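His-tagged human β-catenin (residues 138-781, E. coli-expressed) at 10 nM with 2.5 nM fluorescein-labeled Tcf4 (7-51) in PBS-type buffer with bovine γ-globulin and 0.01% Triton X-100. Compounds added, 1.5 h at 4 °C, 1% DMSO, before fluorescence polarization read. IC50 by nonlinear fit; Ki derived from IC50.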

Experiment [3] relates to Wnt/β-catenin transactivation. Kind of experiment: Wnt-responsive TOPFlash luciferase reporter assay, SW480. Type of experiment: cell-based. The note with it: Homo sapiens, mean ± SD (n = 3), Table 6.
In the next experiment the test system is SW480 cells. Kind of experiment: MTS cell viability assay, SW480. The note with it: mean ± SD (n = 3). Type of experiment: cell-based. On the procedure:
as §1
(Formazan colour is commonly taken as a measure of viable cells.)

The subject of another experiment is HCT116 cells. Kind of experiment: MTS cell viability assay, HCT116. Type of experiment: cell-based. To be noted: Homo sapiens, HCT-116; 72 h; mean ± SD (n = 3); Table 5; read-out: MTS cell viability IC50, Wnt hyperactive cancer cells HCT116. The method, then: as §1
The mark [4] stands for this setting: Assay 1, mean ± SD (n = 3), read-out: Ki ± SD, Assay 1.
Where [5] appears, read: Homo sapiens, SW480, 72 h, Table 4, read-out: MTS cell viability IC50, Wnt hyperactive SW480 Cells (converted).
Setting [6] is: Assay 2, mean ± SD (n = 3), read-out: Ki ± SD, Assay 2.
Setting [7] is: Assay 3, mean ± SD (n = 3), read-out: Ki ± SD, Assay 3.
[8] abbreviates: Homo sapiens, SW480, 72 h, Table 5, read-out: MTS cell viability IC50, Wnt hyperactive cancer cells SW480.

As for `COC(=O)c1ccc2c(c1)c(CCc1ccc(Cl)cc1)c(CCc1nc3cc(OC)ccc3s1)n2CCc1nn[nH]n1` [Compound 35, Methyl 1-(2-(2H-tetrazol-5-yl)ethyl)-3-(4-chlorophenethyl)-2-(2-(5-methoxybenzo[d]thiazol-2-yl)ethyl)-1H-indole-5-carboxylate], the IC50 (in general, the concentration needed to halve the response being measured) with A549 cells is 13 ± 5.9 µM; in experiment [1] (Table 6) it was 11 ± 2.3 µM; in experiment [3], 4.3 ± 1.2 µM; in the experiment on SW480 cells (72 h, Table 4, read-out: MTS cell viability IC50, Wnt hyperactive SW480 Cells (converted)), 3.2 µM; in the experiment on SW480 cells (setting [5]) it was 3.1 ± 1.8 µM. For the same molecule, in experiment [2] (setting [4]), the Ki (commonly a measure of affinity in units of concentration, obtained from inhibition or displacement) came out at 4.1 ± 1.1 µM.
Take `O=C(NCc1ccc(F)cc1)c1ccc2c(c1)c(CCc1ccc(F)cc1)c(CCc1nc3ccccc3s1)n2CCc1nn[nH]n1` [Compound 44, 1-(2-(2H-tetrazol-5-yl)ethyl)-2-(2-(benzo[d]thiazol-2-yl)ethyl)-N-(4-fluorobenzyl)-3-(4-fluoro-phenethyl)-1H-indole-5-carboxamide]: the IC50 was 42 ± 5.8 µM with A549 cells, 42 ± 5.8 µM in experiment [1] (Table 6), 12 ± 1.3 µM in experiment [3] and 12 ± 1.4 µM with SW480 cells (setting [5]). Also, the Ki amounted to 1.6 ± 0.37 µM in experiment [2] (setting [4]); 0.35 ± 0.15 µM in experiment [2] (setting [6]); 1.3 ± 0.37 µM in experiment [2] (setting [7]); 0.92 ± 0.06 µM in experiment [2] (Assay 4, mean ± SD (n = 3), read-out: Ki ± SD, Assay 4).
Consider `Cc1ccc(CCc2c(-c3ccsc3)n(CCc3nn[nH]n3)c3ccc(C(=O)NOC4CCCCO4)cc23)cc1` (centres unmarked) [Compound 92, 1-(2-(2H-tetrazol-5-yl)ethyl)-3-(4-methylphenethyl)-N-((tetrahydro-2H-pyran-2-yl)oxy)-2-(thiophen-3-yl)-1H-indole-5-carboxamide], for which the IC50 in experiment [1] (Table 7) came to 50 ± 5.7 µM; in the experiment on SW480 cells (setting [8]) it was 81 ± 17 µM. For the same molecule, the Ki in experiment [2] (setting [4]) amounted to 10 ± 1.6 µM.
`Cc1ccc(CCc2c(-c3csc(C(F)F)c3)n(CCc3nn[nH]n3)c3ccc(C(=O)NCc4ccon4)cc23)cc1` [Compound 94, 1-(2-(2H-tetrazol-5-yl)ethyl)-2-(5-(difluoromethyl)thiophen-3-yl)-N-(isoxazol-3-ylmethyl)-3-(4-methylphenethyl)-1H-indole-5-carboxamide]: the figures for the IC50 (in experiment [1] (Table 7); with HCT116 cells; in the experiment with SW480 cells (setting [8])) were 9.9 ± 1.5 µM, 46 ± 5.3 µM and 32 ± 3.6 µM, respectively. The Ki in experiment [2] (setting [4]) was 2.7 ± 0.26 µM; in experiment [2] (setting [6]), 4.9 ± 0.36 µM; in experiment [2] (setting [7]) it was 26 ± 2.7 µM.
